# Source: PubChem BioAssay (NCI)
#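 Protocol summary: plate cells (96-well), add compound at 5 concentrations, incubate 48 h, interpolate endpoints linearly. GI50 marks 50% less growth. TGI: total growth inhibition.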
# Key:
# Assay in all cases: growth of human tumour cells (NCI), 48 h
# DU-145 prostate = tested on: DU-145 prostate
# A498 renal = tested on: A498 renal
# OVCAR-3 ovarian = tested on: OVCAR-3 ovarian
# SF-268 CNS = tested on: SF-268 CNS
# NCI-H522 lung = tested on: NCI-H522 lung
# OVCAR-5 ovarian = tested on: OVCAR-5 ovarian
# HCC-2998 colon = tested on: HCC-2998 colon
# SF-539 CNS = tested on: SF-539 CNS
# NCI/ADR-RES ovarian = tested on: NCI/ADR-RES ovarian
# U251 CNS = tested on: U251 CNS
# MDA-MB-231 breast = tested on: MDA-MB-231 breast
# SNB-19 CNS = tested on: SNB-19 CNS
# HT29 colon = tested on: HT29 colon
# NCI-H23 lung = tested on: NCI-H23 lung
# SK-MEL-2 melanoma = tested on: SK-MEL-2 melanoma
# TK-10 renal = tested on: TK-10 renal
# 786-0 renal = tested on: 786-0 renal
# MALME-3M melanoma = tested on: MALME-3M melanoma
# MDA-MB-435 = tested on: MDA-MB-435
# SF-295 CNS = tested on: SF-295 CNS
# NCI-H460 lung = tested on: NCI-H460 lung
# T-47D breast = tested on: T-47D breast
# M14 melanoma = tested on: M14 melanoma
# K-562 leukemia = tested on: K-562 leukemia
# HS 578T breast = tested on: HS 578T breast
# PC-3 prostate = tested on: PC-3 prostate
# OVCAR-4 ovarian = tested on: OVCAR-4 ovarian
# KM12 colon = tested on: KM12 colon
# BT-549 breast = tested on: BT-549 breast
# OVCAR-8 ovarian = tested on: OVCAR-8 ovarian
# EKVX NSCLC = tested on: EKVX NSCLC
# UO-31 renal = tested on: UO-31 renal
# SK-MEL-28 melanoma = tested on: SK-MEL-28 melanoma
# SK-MEL-5 melanoma = tested on: SK-MEL-5 melanoma
# RPMI-8226 leukemia = tested on: RPMI-8226 leukemia
# SW-620 colon = tested on: SW-620 colon
# HOP-62 NSCLC = tested on: HOP-62 NSCLC
# HCT-15 colon = tested on: HCT-15 colon
# RXF 393 renal = tested on: RXF 393 renal
# A549 NSCLC = tested on: A549 NSCLC
# COLO 205 colon = tested on: COLO 205 colon
# MCF7 breast = tested on: MCF7 breast
# SK-OV-3 ovarian = tested on: SK-OV-3 ovarian
# SNB-75 CNS = tested on: SNB-75 CNS
# SR leukemia = tested on: SR leukemia
# HCT-116 colon = tested on: HCT-116 colon
# NCI-H226 lung = tested on: NCI-H226 lung
# MOLT-4 leukemia = tested on: MOLT-4 leukemia
# HOP-92 NSCLC = tested on: HOP-92 NSCLC
# IGROV1 ovarian = tested on: IGROV1 ovarian
# UACC-62 melanoma = tested on: UACC-62 melanoma
# UACC-257 melanoma = tested on: UACC-257 melanoma
# LOX IMVI melanoma = tested on: LOX IMVI melanoma
# SN12C renal = tested on: SN12C renal
# ACHN renal = tested on: ACHN renal
# CCRF-CEM leukemia = tested on: CCRF-CEM leukemia
smiles,measurement,setting,value
Cc1cccc(NC(=O)c2sc3nc4c(cc3c2N)CN(Cc2ccccc2)CC4)c1C,GI50,DU-145 prostate,201 nM
same,TGI,DU-145 prostate,> 50000 nM
same,GI50,A498 renal,397 nM
same,TGI,A498 renal,> 50000 nM
same,GI50,OVCAR-3 ovarian,194 nM
same,TGI,OVCAR-3 ovarian,31900 nM
same,GI50,SF-268 CNS,387 nM
same,TGI,SF-268 CNS,> 50000 nM
same,GI50,NCI-H522 lung,138 nM
same,TGI,NCI-H522 lung,> 50000 nM
same,GI50,OVCAR-5 ovarian,484 nM
same,TGI,OVCAR-5 ovarian,> 50000 nM
same,GI50,HCC-2998 colon,5390 nM
same,TGI,HCC-2998 colon,> 50000 nM
same,GI50,SF-539 CNS,165 nM
same,TGI,SF-539 CNS,28200 nM
same,GI50,NCI/ADR-RES ovarian,133 nM
same,TGI,NCI/ADR-RES ovarian,> 50000 nM
same,GI50,U251 CNS,251 nM
same,TGI,U251 CNS,> 50000 nM
same,GI50,MDA-MB-231 breast,432 nM
same,TGI,MDA-MB-231 breast,> 50000 nM
same,GI50,SNB-19 CNS,283 nM
same,TGI,SNB-19 CNS,> 50000 nM
same,GI50,HT29 colon,147 nM
same,TGI,HT29 colon,1600 nM
same,GI50,NCI-H23 lung,256 nM
same,TGI,NCI-H23 lung,> 50000 nM
same,GI50,SK-MEL-2 melanoma,328 nM
same,TGI,SK-MEL-2 melanoma,25800 nM
same,GI50,TK-10 renal,5360 nM
same,TGI,TK-10 renal,> 50000 nM
same,GI50,786-0 renal,197 nM
same,TGI,786-0 renal,28500 nM
same,GI50,MALME-3M melanoma,239 nM
same,TGI,MALME-3M melanoma,> 50000 nM
same,GI50,MDA-MB-435,65 nM
same,TGI,MDA-MB-435,181 nM
same,GI50,SF-295 CNS,161 nM
same,TGI,SF-295 CNS,41600 nM
same,GI50,NCI-H460 lung,196 nM
same,TGI,NCI-H460 lung,> 50000 nM
same,GI50,T-47D breast,226 nM
same,TGI,T-47D breast,> 50000 nM
same,GI50,M14 melanoma,149 nM
same,TGI,M14 melanoma,33200 nM
same,GI50,K-562 leukemia,104 nM
same,TGI,K-562 leukemia,> 50000 nM
same,GI50,HS 578T breast,189 nM
same,TGI,HS 578T breast,> 50000 nM
same,GI50,PC-3 prostate,210 nM
same,TGI,PC-3 prostate,> 50000 nM
same,GI50,OVCAR-4 ovarian,971 nM
same,TGI,OVCAR-4 ovarian,39000 nM
same,GI50,KM12 colon,193 nM
same,TGI,KM12 colon,> 50000 nM
same,GI50,BT-549 breast,304 nM
same,TGI,BT-549 breast,> 50000 nM
same,GI50,OVCAR-8 ovarian,297 nM
same,TGI,OVCAR-8 ovarian,> 50000 nM
same,GI50,EKVX NSCLC,450 nM
same,TGI,EKVX NSCLC,> 50000 nM
same,GI50,UO-31 renal,917 nM
same,TGI,UO-31 renal,> 50000 nM
same,GI50,SK-MEL-28 melanoma,4060 nM
same,TGI,SK-MEL-28 melanoma,> 50000 nM
same,GI50,SK-MEL-5 melanoma,213 nM
same,TGI,SK-MEL-5 melanoma,> 50000 nM
same,GI50,RPMI-8226 leukemia,198 nM
same,TGI,RPMI-8226 leukemia,> 50000 nM
same,GI50,SW-620 colon,207 nM
same,TGI,SW-620 colon,> 50000 nM
same,GI50,HOP-62 NSCLC,261 nM
same,TGI,HOP-62 NSCLC,> 50000 nM
same,GI50,HCT-15 colon,176 nM
same,TGI,HCT-15 colon,> 50000 nM
same,GI50,RXF 393 renal,133 nM
same,TGI,RXF 393 renal,2110 nM
same,GI50,A549 NSCLC,381 nM
same,TGI,A549 NSCLC,> 50000 nM
same,GI50,COLO 205 colon,274 nM
same,TGI,COLO 205 colon,> 50000 nM
same,GI50,MCF7 breast,151 nM
same,TGI,MCF7 breast,> 50000 nM
same,GI50,SK-OV-3 ovarian,216 nM
same,TGI,SK-OV-3 ovarian,> 50000 nM
same,GI50,SNB-75 CNS,112 nM
same,TGI,SNB-75 CNS,419 nM
same,GI50,SR leukemia,94.1 nM
same,TGI,SR leukemia,> 50000 nM
same,GI50,HCT-116 colon,227 nM
same,TGI,HCT-116 colon,> 50000 nM
same,GI50,NCI-H226 lung,1640 nM
same,TGI,NCI-H226 lung,> 50000 nM
same,GI50,MOLT-4 leukemia,286 nM
same,TGI,MOLT-4 leukemia,> 50000 nM
same,GI50,HOP-92 NSCLC,736 nM
same,TGI,HOP-92 NSCLC,47300 nM
same,GI50,IGROV1 ovarian,337 nM
same,TGI,IGROV1 ovarian,> 50000 nM
same,GI50,UACC-62 melanoma,274 nM
same,TGI,UACC-62 melanoma,> 50000 nM
same,GI50,UACC-257 melanoma,> 50000 nM
same,TGI,UACC-257 melanoma,> 50000 nM
same,GI50,LOX IMVI melanoma,254 nM
same,TGI,LOX IMVI melanoma,> 50000 nM
same,GI50,SN12C renal,313 nM
same,TGI,SN12C renal,> 50000 nM
same,GI50,ACHN renal,409 nM
same,TGI,ACHN renal,> 50000 nM
same,GI50,CCRF-CEM leukemia,195 nM
same,TGI,CCRF-CEM leukemia,> 50000 nM
